Test results as given in PMC10866072, “Design, synthesis, molecular modelling and biological evaluation of novel 6-amino-5-cyano-2-thiopyrimidine derivatives as potent anticancer agents against leukemia and apoptotic inducers” (Journal of Enzyme Inhibition and Medicinal Chemistry, 2024).

Experiments:
[1] = test system: T-47D; format: cell-based; settings: one dose 10^-5 M, 48 h
[2] = test system: BT-549; format: cell-based; settings: one dose 10^-5 M, 48 h
[3] = test system: HOP-62; format: cell-based; settings: one dose 10^-5 M, 48 h
[4] = test system: HT29; format: cell-based; settings: 48 h
[5] = test system: RPMI-8226; format: cell-based; settings: one dose 10^-5 M, 48 h
[6] = test system: full NCI 60 cell lines panel; settings: for activity on all 60 cancer cell lines tested (in words): one dose
[7] = test system: OVCAR-8; format: cell-based; settings: one dose 10^-5 M, 48 h
[8] = test system: PC-3; format: cell-based; settings: one dose 10^-5 M, 48 h
[9] = test system: CCRF-CEM; format: cell-based; settings: one dose 10^-5 M, 48 h
[10] = test system: HL-60(TB); format: cell-based; settings: one dose 10^-5 M, 48 h
[11] = test system: HCT-116; format: cell-based; settings: one dose 10^-5 M, 48 h
[12] = test system: UACC-257; format: cell-based; settings: one dose 10^-5 M, 48 h
[13] = test system: SW-620; format: cell-based; settings: one dose 10^-5 M, 48 h
[14] = test system: LOX IMVI; format: cell-based; settings: one dose 10^-5 M, 48 h
[15] = test system: MDA-MB-231/ATCC; format: cell-based; settings: one dose 10^-5 M, 48 h
[16] = test system: UO-31; format: cell-based; settings: one dose 10^-5 M, 48 h
[17] = test system: MDA-MB-468; format: cell-based; settings: one dose 10^-5 M, 48 h
[18] = test system: ACHN; format: cell-based; settings: one dose 10^-5 M, 48 h
[19] = test system: SR; format: cell-based; settings: one dose 10^-5 M, 48 h
[20] = test system: SF-295; format: cell-based; settings: one dose 10^-5 M, 48 h
[21] = test system: CAKI-1; format: cell-based; settings: one dose 10^-5 M, 48 h
[22] = test system: COLO 205; format: cell-based; settings: one dose 10^-5 M, 48 h
[23] = test system: MCF7; format: cell-based; settings: one dose 10^-5 M, 48 h
[24] = test system: K-562; format: cell-based; settings: 48 h
[25] = test system: NCI-H226; format: cell-based; settings: one dose 10^-5 M, 48 h
[26] = test system: 786-0; format: cell-based; settings: one dose 10^-5 M, 48 h
[27] = test system: SF-268; format: cell-based; settings: one dose 10^-5 M, 48 h
[28] = test system: SF-539; format: cell-based; settings: one dose 10^-5 M, 48 h
[29] = test system: HCT-15; format: cell-based; settings: one dose 10^-5 M, 48 h
[30] = test system: OVCAR-5; format: cell-based; settings: one dose 10^-5 M, 48 h
[31] = test system: HOP-92; format: cell-based; settings: one dose 10^-5 M, 48 h
[32] = test system: NCI-H460; format: cell-based; settings: one dose 10^-5 M, 48 h
[33] = test system: EKVX; format: cell-based; settings: one dose 10^-5 M, 48 h
[34] = test system: UACC-62; format: cell-based; settings: one dose 10^-5 M, 48 h
[35] = test system: MOLT-4; format: cell-based; settings: one dose 10^-5 M, 48 h
[36] = test system: A498; format: cell-based; settings: one dose 10^-5 M, 48 h
[37] = test system: SNB-19; format: cell-based; settings: one dose 10^-5 M, 48 h
[38] = test system: SK-MEL-28; format: cell-based; settings: one dose 10^-5 M, 48 h
[39] = test system: MALME-3M; format: cell-based; settings: one dose 10^-5 M, 48 h
[40] = test system: HS 578T; format: cell-based; settings: one dose 10^-5 M, 48 h, HS 578T
[41] = test system: OVCAR-4; format: cell-based; settings: one dose 10^-5 M, 48 h
[42] = test system: NCI-H522; format: cell-based; settings: one dose 10^-5 M, 48 h
[43] = test system: KM12; format: cell-based; settings: one dose 10^-5 M, 48 h
[44] = test system: NCI-H23; format: cell-based; settings: one dose 10^-5 M, 48 h
[45] = test system: HCC-2998; format: cell-based; settings: one dose 10^-5 M, 48 h
[46] = test system: U251; format: cell-based; settings: 48 h
[47] = test system: M14; format: cell-based; settings: one dose 10^-5 M, 48 h
[48] = test system: DU-145; format: cell-based; settings: one dose 10^-5 M, 48 h
[49] = test system: SK-MEL-2; format: cell-based; settings: one dose 10^-5 M, 48 h
[50] = test system: A549/ATCC; format: cell-based; settings: one dose 10^-5 M, 48 h
[51] = test system: SK-OV-3; format: cell-based; settings: one dose 10^-5 M, 48 h
[52] = test system: OVCAR-3; format: cell-based; settings: one dose 10^-5 M, 48 h
[53] = test system: SK-MEL-5; format: cell-based; settings: one dose 10^-5 M, 48 h
[54] = test system: TK-10; format: cell-based; settings: one dose 10^-5 M, 48 h
[55] = test system: RXF 393; format: cell-based; settings: one dose 10^-5 M, 48 h
[56] = test system: SN12C; format: cell-based, human; settings: one dose 10^-5 M, 48 h
[57] = test system: MDA-MB-435; format: cell-based; settings: one dose 10^-5 M, 48 h
[58] = test system: NCI/ADR-RES; format: cell-based; settings: one dose 10^-5 M, 48 h
[59] = test system: IGROV1; format: cell-based; settings: 48 h
[60] = Homo sapiens, read-out: % growth

With “4-Amino-6–(2,4-dichlorophenyl)-2-mercaptopyrimidine-5-carboximidohydrazide [Compound 2c]” the “% growth” value [1] was 73.88%, the “% growth” value [2] was 81.84% and the “% growth” value [3] was 95.11%. For the same compound, the “% growth” value ([4]; one dose 10^-5 M) was 89.84%, the “% growth” value [5] was 87.93% and the “activity on all 60 cancer cell lines tested (in words)” value [6] was “weak activity”. The Mean % growth ([6]; one dose 10^-5 M, 48 h, mean over all cell lines) was 90.71%, the “% growth” value [7] was 94.00% and the “% growth” value [8] was 77.58%. The “% growth” value [9] was 75.32%, the “% growth” value [10] was 57.91% and the “% growth” value [11] was 85.00%. For the same compound, the “% growth” value [12] was 102.94%, the “% growth” value [13] was 87.86% and the “% growth” value [14] was 86.57%. The “% growth” value [15] was 77.09%, the “% growth” value [16] was 71.44% and the “% growth” value [17] was 90.16%. For the same compound, the “% growth” value [18] was 76.09%, the “% growth” value [19] was 69.30% and the “% growth” value [20] was 93.63%. The “% growth” value [21] was 83.79%, the “% growth” value [22] was 100.56% and the “% growth” value [23] was 79.62%. For the same compound, the “% growth” value ([24]; one dose 10^-5 M) was 91.24%, the “% growth” value [25] was 90.50% and the “% growth” value [26] was 90.40%. The “% growth” value [27] was 104.49%, the “% growth” value [28] was 85.28% and the “% growth” value [29] was 92.01%. For the same compound, the “% growth” value [30] was 98.09%, the “% growth” value [31] was 71.67% and the “% growth” value [32] was 89.85%. For the same compound, the “% growth” value [33] was 83.88%, the “% growth” value [34] was 84.96% and the “% growth” value [35] was 94.43%. For the same compound, the “% growth” value [36] was 105.32%, the “% growth” value [37] was 86.22% and the “% growth” value [38] was 109.76%. The “% growth” value [39] was 94.17%, the “% growth” value [40] was 99.16% and the “% growth” value [41] was 82.22%. For the same compound, the “% growth” value [42] was 68.80%, the “% growth” value [43] was 100.35% and the “% growth” value [44] was 95.68%. The “% growth” value [45] was 108.77%, the “% growth” value ([46]; one dose 10^-5 M) was 103.26% and the “% growth” value [47] was 95.64%. For the same compound, the “% growth” value [48] was 107.65%, the “% growth” value [49] was 95.39% and the “% growth” value [50] was 89.50%. The “% growth” value [51] was 94.00%, the “% growth” value [52] was 104.96% and the “% growth” value [53] was 97.76%. For the same compound, the “% growth” value [54] was 111.85%, the “% growth” value [55] was 94.62% and the “% growth” value [56] was 91.26%. For the same compound, the “% growth” value [57] was 96.41%, the “% growth” value [58] was 103.23% and the “% growth” value ([59]; one dose 10^-5 M) was 104.68%.
Compound `N=C(NN=Cc1ccccc1)c1c(N)nc(S)nc1-c1ccc(Cl)cc1Cl` [Compound 4m, 4-Amino-6–(2,4-dichlorophenyl)-2-mercapto-N'-[phenylmethylene]pyrimidine-5-carboximidohydrazide] has an activity at 10 µM ([1]; Homo sapiens, T47D, read-out: % growth) of 103%, a % cell growth at 10 µM ([2]; Homo sapiens) of 88.5% and a % growth at 10 µM ([3]; Homo sapiens) of 96.6%. The % growth at 10 µM ([4]; Homo sapiens, HT-29, one dose 10^-5 M) was 108%, the % growth at 10 µM ([5]; Homo sapiens) was 104% and the activity at 10 µM ([6]; Homo sapiens, 60 cell, 48 h, read-out: Mean % growth) was 101%. For the same compound, the “activity on all 60 cancer cell lines tested (in words)” value [6] was “weak activity”, the % growth of cells at 10 µM ([7]; Homo sapiens) was 109% and the percent cell growth at 10 µM ([8]; Homo sapiens) was 103%. For the same compound, the % cell growth at 10 µM ([9]; Homo sapiens) was 105%, the % growth at 10 µM ([10]; Homo sapiens) was 97.1% and the activity at 10 µM [11, 60] was 103%. For the same compound, the percent cell growth at 10 µM ([12]; Homo sapiens) was 106%, the % growth at 10 µM ([13]; Homo sapiens) was 109% and the activity at 10 µM [14, 60] was 100%. It also gave a % growth at 10 µM ([15]; Homo sapiens) of 94.4%, a % cell growth at 10 µM ([16]; Homo sapiens, UO-31, 48 h) of 90.1% and a percent cell growth at 10 µM ([17]; Homo sapiens) of 91.1%. The % growth at 10 µM ([18]; Homo sapiens) was 108%, the percent cell growth at 10 µM ([19]; Homo sapiens) was 83.2% and the % cell growth at 10 µM ([20]; Homo sapiens) was 86.9%. The % growth at 10 µM ([21]; Homo sapiens, CAKI-1, 48 h) was 96%, the % growth at 10 µM ([22]; Homo sapiens) was 115% and the activity at 10 µM [23, 60] was 89.1%. It also gave a % growth at 10 µM ([24]; Homo sapiens, K562, one dose 10^-5 M) of 95.8%, a % growth at 10 µM ([25]; Homo sapiens) of 92% and a % growth at 10 µM ([26]; Homo sapiens) of 92.5%. The activity at 10 µM [27, 60] was 105%, the % growth at 10 µM ([28]; Homo sapiens) was 100% and the activity at 10 µM [29, 60] was 101%. For the same compound, the percent cell growth at 10 µM ([30]; Homo sapiens) was 108%, the % growth at 10 µM ([31]; Homo sapiens) was 69.2% and the activity at 10 µM [32, 60] was 108%. It also gave a % cell growth at 10 µM ([33]; Homo sapiens) of 103%, a % growth at 10 µM ([34]; Homo sapiens) of 94.3% and an activity at 10 µM [35, 60] of 96.2%. It also gave a % growth at 10 µM ([36]; Homo sapiens) of 125%, an activity at 10 µM [37, 60] of 95.8% and a % cell growth at 10 µM ([38]; Homo sapiens) of 104%. The % growth at 10 µM ([39]; Homo sapiens) was 85.7%, the activity at 10 µM [40, 60] was 102% and the % growth at 10 µM ([41]; Homo sapiens) was 115%. It also gave a % growth at 10 µM ([42]; Homo sapiens) of 109%, a % growth at 10 µM ([43]; Homo sapiens) of 103% and an activity at 10 µM [44, 60] of 98.7%. It also gave a % growth at 10 µM ([45]; Homo sapiens) of 105%, a % growth at 10 µM ([46]; Homo sapiens, U-251, one dose 10^-5 M) of 97.3% and a % growth at 10 µM ([47]; Homo sapiens) of 96.2%. It also gave a % growth at 10 µM ([48]; Homo sapiens) of 111%, a % growth at 10 µM ([49]; Homo sapiens) of 120% and a % growth at 10 µM ([50]; Homo sapiens) of 97.4%. The % growth at 10 µM ([51]; Homo sapiens) was 95.6%, the % growth at 10 µM ([52]; Homo sapiens) was 109% and the activity at 10 µM [53, 60] was 103%. The % cell growth at 10 µM ([54]; Homo sapiens) was 140%, the activity at 10 µM ([55]; Homo sapiens, RXF 393, 48 h, read-out: % growth) was 89.5% and the % growth at 10 µM ([56]; Homo sapiens) was 95.9%. It also gave an activity at 10 µM [57, 60] of 110%, a cell growth percent at 10 µM ([58]; Homo sapiens) of 105% and an activity at 10 µM ([59]; Homo sapiens, IGROV-1, one dose 10^-5 M, read-out: % growth) of 101%.
